Results: patent publication US20230302164A1, “PSMA-Targeting Ligands With Optimal Properties for Imaging and Therapy” (Wisconsin Alumni Research Foundation, priority 2021, published 2023)
Where two headings read alike, the source gives them in different places.

Columns and labels:
[1] = target: T1, PSMA (LNCap cells, PSMA positive) (Homo sapiens, UniProt Q04609); experiment: Competitive binding assay in LNCap cells using 86Y as a radioligand; settings: 86Y radioligand, read-out: half inhibition concentration (IC50)
T1 construct: endogenous in cells; host or cells: LNCap cells (human prostate adenocarcinoma)
Method: Competitive binding assays were performed in LNCap cells (PSMA positive, androgen-sensitive human prostate adenocarcinoma cells) using ^86Y as a radioligand.

[2] = PET/CT imaging in normal ICR mice, blood kinetics by region of interest analysis of the heart; type: in vivo; settings: i.v., PET days 0-2
Method: Compounds PSMA-C12 and PSMA-PhC18 were dissolved in water at a concentration of 1-2 mg/mL. Radiolabeling with Y-86 was carried out in NaOAc buffer (pH 5.0) at 90-95 C for 30 min to 1 h at constant stirring. Ten micrograms of compound per mCi of ^86Y were employed, affording quantitative radiochemical yields. Purification of the compounds was carried out using reverse-phase solid-phase chromatography and purified compounds were redissolved in physiological injection media (e.g., normal saline). Quality control was conducted using reverse-phase HPLC.
In PET/CT imaging studies, 100-250 µCi of ^86Y-PSMA-C12 and ^86Y-PSMA-PhC18 were intravenously administered into normal ICR mice, and mice were scanned on days 0, 1, and 2 after injection. The results are shown in FIG. 1 (for ^86Y-PSMA-C12) and in FIG. 2 (for ^86Y-PSMA-PhC18). Blood circulation kinetics were analyzed through a region of interest analysis of the heart.
To our knowledge, ^86Y-PSMA-PhC18 is the only PSMA inhibitor showing long circulation without albumin binding, and that has predominantly hepatic excretion. These features have clear advantages over other previously known PSMA ligands for prostate cancer theranostics.

PC3-PIP tumor xenografts [3] = experiment: Ex vivo biodistribution in PC3-PIP mice after last imaging timepoint; settings: 24 h p.i. (617, C12) or 72 h p.i. (PhC18)
Method: Next, an ex vivo biodistribution analysis was performed following the last imaging timepoint at 24 h p.i. for PC3-PIP mice injected intravenously with ^86Y-PSMA-617 and ^86Y-PSMA-C12 and at 72 h p.i. in mice administered ^86Y-PSMA-PhC18.

PC3-PIP tumor xenografts [4] = experiment: PET/CT imaging and region of interest analysis in nude mice bearing PC3-PIP tumor xenografts; type: in vivo
Method: Next, PET/CT imaging studies were performed in nude mice bearing PC3-PIP tumor xenografts ([…] tumors) injected intravenously with ^86Y-PSMA-617, ^86Y-PSMA-C12, or ^86Y-PSMA-PhC18 and scanned up to 72 h post injection.
A region of interest analysis was then performed on the PC3-PIP tumor xenografts injected intravenously with ^86Y-PSMA-617, ^86Y-PSMA-C12, or ^86Y-PSMA-PhC18 and scanned up to 72 h post injection.

[5] = system: LNCap tumor xenografts with lower PSMA expression; experiment: PET/CT imaging and region of interest analysis in nude mice bearing LNCap tumor xenografts; type: in vivo
Method: Next, PET/CT imaging studies were performed in nude mice bearing LNCap tumor xenografts with lower PSMA expression. The mice were injected intravenously with ^86Y-PSMA-617, ^86Y-PSMA-C12, or ^86Y-PSMA-PhC18 and scanned up to 72 h p.i. […] Finally, a region of interest analysis was then performed on the PET/CT images in nude mice bearing LNCap tumor xenografts injected intravenously with ^86Y-PSMA-617, ^86Y-PSMA-C12, or ^86Y-PSMA-PhC18 and scanned up to 72 h post injection.

[6] = Partition (logP) and distribution (logD) coefficients, hydrophobicity comparison; type: physicochemical; settings: for LogD: distribution coefficient; for LogD / LogP: 177Lu-labeled compound; for LogP: partition coefficient
[7] = nude mice, i.v., scanned up to 72 h
[8] = nude mice, region of interest analysis

T1 sequence (Q04609 whole entry): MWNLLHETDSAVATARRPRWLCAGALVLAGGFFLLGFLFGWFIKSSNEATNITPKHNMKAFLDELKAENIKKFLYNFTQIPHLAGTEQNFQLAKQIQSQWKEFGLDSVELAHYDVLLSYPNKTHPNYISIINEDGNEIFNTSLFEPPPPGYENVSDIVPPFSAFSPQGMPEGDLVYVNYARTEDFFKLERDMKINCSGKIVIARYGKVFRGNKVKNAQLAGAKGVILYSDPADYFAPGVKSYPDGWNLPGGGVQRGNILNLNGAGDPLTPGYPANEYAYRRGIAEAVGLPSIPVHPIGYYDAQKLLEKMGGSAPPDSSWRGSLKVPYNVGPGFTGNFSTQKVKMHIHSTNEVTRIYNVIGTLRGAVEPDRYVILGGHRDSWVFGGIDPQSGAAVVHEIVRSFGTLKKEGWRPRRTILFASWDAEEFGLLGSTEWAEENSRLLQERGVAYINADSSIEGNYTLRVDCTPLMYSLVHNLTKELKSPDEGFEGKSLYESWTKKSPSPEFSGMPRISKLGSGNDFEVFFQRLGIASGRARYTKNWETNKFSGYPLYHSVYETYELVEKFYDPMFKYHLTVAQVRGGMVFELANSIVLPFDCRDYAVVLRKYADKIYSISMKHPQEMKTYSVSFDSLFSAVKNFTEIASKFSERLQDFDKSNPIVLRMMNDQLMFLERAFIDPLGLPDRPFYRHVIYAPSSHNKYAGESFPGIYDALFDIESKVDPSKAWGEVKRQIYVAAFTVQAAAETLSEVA

## O=C(O)CCC(NC(=O)NC(CCCCNC(=O)CCCCCCCCCCCNC(=O)CN1CCN(CC(=O)O)CCN(CC(=O)O)CCN(CC(=O)O)CC1)C(=O)O)C(=O)O (stereo not drawn) [^86Y-PSMA-C12, metal not drawn]
[1]
  IC50: 0.0582 µM
[2]
  blood circulation: short circulation half-life
  excretion route: renal excretion
PC3-PIP tumor xenografts [3]
  tissue with highest uptake in ex vivo biodistribution: the tumor shows the highest uptake of all analysed tissues

## O=C(O)CCC(NC(=O)NC(CCCCNC(=O)CCCCCCCCCCCCCCCCCc1ccc(NC(=O)CN2CCN(CC(=O)O)CCN(CC(=O)O)CCN(CC(=O)O)CC2)cc1)C(=O)O)C(=O)O (stereo not drawn) [^86Y-PSMA-PhC18, metal not drawn]
[2]
  blood circulation: prolonged circulation
  excretion route: hepatobiliary excretion
PC3-PIP tumor xenografts [4]; nude mice, i.v., PET/CT
  tumor uptake and retention versus 86Y-PSMA-617 and 86Y-PSMA-C12: significantly improved
PC3-PIP tumor xenografts [4]; [7]
  blood circulation: prolonged blood circulation
  renal clearance: minimal renal clearance
PC3-PIP tumor xenografts [4]; [8]
  blood circulation half-life: 11.7 h
PC3-PIP tumor xenografts [4]; nude mice, region of interest analysis, FIG. 5 legend
  blood circulation half-life (unit not given): 11.7 h
PC3-PIP tumor xenografts [4]; post injection
  time at which tumor uptake plateaus: 24 h
PC3-PIP tumor xenografts [3]
  tissue with highest uptake in ex vivo biodistribution: the tumor shows the highest uptake of all analysed tissues
[5]; nude mice
  clearance from normal organs: Steady clearance from normal organs
[5]; nude mice, PET/CT
  tumor uptake and retention versus 86Y-PSMA-617: significantly improved
[5]; [7]
  blood circulation: prolonged blood circulation
  renal clearance: minimal renal clearance
[5]; [8]
  blood circulation half-life: 15.1 h
[5]; p.i.
  time at which tumor uptake plateaued: 24 h
[5]; region of interest analysis
  tumor uptake at 72 h p.i. relative to 86Y-PSMA-617 and 86Y-PSMA-C12 at 24 h p.i.: five times higher

## O=C([O-])CN1CCN(CC(=O)[O-])CCN(CC(=O)NCC2CCC(C(=O)N[C@@H](Cc3ccc4ccccc4c3)C(=O)NCCCC[C@H](NC(=O)N[C@@H](CCC(=O)O)C(=O)O)C(=O)O)CC2)CCN(CC(=O)[O-])CC1.[177Lu+3] (stereo partly drawn) [^177Lu-PSMA-617, reference compound]
[6]
  LogD: -3.2
  LogP: -2.8

## O=C(O)CCC(NC(=O)NC(CCCCNC(=O)CCCCCCCCCCCNC(=O)CN1CCN(CC(=O)O)CCN(CC(=O)O)CCN(CC(=O)O)CC1)C(=O)O)C(=O)O (stereo not drawn) [^177Lu-PSMA-C12, metal not drawn]
[6]; read-out: LogD
  LogD: -2.9
[6]; read-out: LogP
  LogP: -2.6

## O=C(O)CCC(NC(=O)NC(CCCCNC(=O)CCCCCCCCCCCCCCCCCc1ccc(NC(=O)CN2CCN(CC(=O)O)CCN(CC(=O)O)CCN(CC(=O)O)CC2)cc1)C(=O)O)C(=O)O (stereo not drawn) [^177Lu-PSMA-PhC18, metal not drawn]
[6]; 177Lu-labeled compounds compared with each other
  hydrophobicity comparison: two orders of magnitude more hydrophobic
[6]
  LogD: -1.2
  LogP: -0.8
